Consider one molecule from article PMC8976029, “Gut microbiota production of trimethyl-5-aminovaleric acid reduces fatty acid oxidation and accelerates cardiac hypertrophy” (Nature Communications, 2022).

The test concerns the target T1, OCTN2 (hOCTN2) (Homo sapiens, UniProt O76082).
T1 construct: gene SLC22A5; human OCTN2 stably overexpressed in MDCK cells; no tag stated
T1 sequence (O76082 1-557): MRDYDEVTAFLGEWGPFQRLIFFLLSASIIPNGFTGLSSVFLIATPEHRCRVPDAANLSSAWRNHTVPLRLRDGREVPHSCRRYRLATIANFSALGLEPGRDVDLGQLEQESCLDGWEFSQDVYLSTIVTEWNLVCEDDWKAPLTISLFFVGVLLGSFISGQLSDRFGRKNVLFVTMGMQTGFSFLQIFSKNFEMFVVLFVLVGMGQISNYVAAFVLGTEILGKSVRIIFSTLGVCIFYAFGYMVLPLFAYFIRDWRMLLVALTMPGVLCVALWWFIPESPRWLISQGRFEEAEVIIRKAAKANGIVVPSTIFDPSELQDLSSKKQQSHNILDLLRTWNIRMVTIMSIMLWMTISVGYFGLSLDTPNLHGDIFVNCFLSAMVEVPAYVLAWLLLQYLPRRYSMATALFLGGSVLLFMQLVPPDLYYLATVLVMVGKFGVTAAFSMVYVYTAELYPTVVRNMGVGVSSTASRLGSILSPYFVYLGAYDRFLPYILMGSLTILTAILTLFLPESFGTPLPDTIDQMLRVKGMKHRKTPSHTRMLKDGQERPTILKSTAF
As to the kind of experiment: d9-carnitine uptake inhibition, LC-MS/MS. The test is classed as cell-based. From the text:
d9-carnitine uptake inhibition, LC-MS/MS on OCTN2 (hOCTN2) | TMAVA reduced the uptake of d9-carnitine in a concentration-dependent manner with an IC50 of […]

For `C[N+](C)(C)CCCCC(=O)O` [TMAVA, N,N,N-trimethyl-5-aminovaleric acid], the IC50 was 4.15 µM.

What is called IC50 is the concentration at which inhibition is half-maximal. Low readings indicate inhibition by little substance, high ones a need for much substance.
